Article PMC5829097, “Designing Antibacterial Peptides with Enhanced Killing Kinetics” (Frontiers in Microbiology, 2018)
Marks after values point to notes of the source that are not given here. Square brackets hold non-standard residues; d marks the D form. Peptide text beside a SMILES is read from it. 12Ado = NCCCCCCCCCCCC(=O)O

Key:
S. aureus ATCC 25923 = assay: Killing kinetics assay (time-kill, first order death rate constant); type: cell-based, Staphylococcus aureus; details: for behavior of the kinetic (death rate) constant as a function of peptide concentration: S. aureus time-kill, concentrations up to 50 μM; for Hills coefficient of death rate constant vs peptide concentration (initial saturating phase) / half saturation constant of death rate constant vs peptide concentration (initial saturating phase): fit Equations 1-3, S. aureus ATCC 25923
Method: Overnight grown culture (S. aureus ATCC 25923) was diluted in fresh MH broth and allowed to grow to obtain OD600 nm of 0.8. The culture was diluted in MH broth to obtain a cell density of 10^5-10^6 c.f.u/ml and was incubated with the peptides at various concentrations within the MIC range for each peptide [BMAP28(1–18), P1, and P1m] till a highest concentration of 50 μM. Aliquots were drawn at specific time intervals and plated after dilution on MH agar plates. The plates were incubated at 37°C for 24 h to obtain viable colonies for calculating the initial death rates of the peptides. The kinetic rate constant was determined by evaluation of c.f.u count at various time points ranging from 10 to 45 min. First order death rate constant was determined by plotting log(c.f.u) vs. time and the slope of linear fit yielded the death rate constant. Four to five time points were used to determine the rate constant. Only two time points were considered for death rate constant at very high concentration (50 μM) as complete killing occurred in the first 15 min.
To further study the effect of mutation on behaviour of peptides, the first order rate constant for the death of S. aureus ATCC 25923 was determined by performing time-kill assays using BMAP28(1-18), P1 and P1m. The following equations were obtained by the fit.
In the first phase, the rate constant saturated to about 28.5 h^-1 up to a peptide concentration of 30µM. […] The behaviour of the rate constant was captured as a product of two functions, namely, an initial region represented by Hills Equation indicating a saturating behaviour, and exponential increase post saturation (Equation 1-3). […] A Hills coefficient greater than 2 indicates a sensitive response requiring only about less than 9 fold change in the concentration to reach saturation. But a lower half saturation constant for BMAP28(1-18) indicates higher affinity of binding of the peptides to the cell membrane for BMAP28(1-18) compared to that for P1m. […] This dramatic effect was caused due to a single change in the residue of an amino-acid. It may be possible that the second phase for P1 may occur at a higher concentration of peptide.
The initial rate constant was determined by fitting the first order death kinetics. The CFU (C) of the organism/cell was determined experimentally in time. The first order rate constant, k, was evaluated by linear fitting the equation given below: […]

human RBCs = assay: Cytotoxicity assay against human erythrocytes (hemolysis); type: cell-based; details: pH 7.4
Method: Hemolysis was determined by incubating 10% (v/v) suspension of human RBCs in PBS (pH 7.4) with different concentrations of peptides [BMAP28(1–18), P1, and P1m] ranging from 1.56 to 100 μM at 37°C for 1 h. RBCs incubated with 0.1% Triton X-100 was used as the positive control and RBCs incubated with PBS was used as blank. The incubated mixtures were centrifuged at 500 × g for 5 min. The hemolytic activity of the peptides was determined by measuring the absorbance of the supernatant at 541 nm. The percent hemolysis was calculated using the equation:
H=(absorbance of sample−absorbance of blank/absorbance of positive control−absorbance of blank)×100
The percentage hemolysis (H) was fitted using a Hill function with respect to the peptide concentration.
The % hemolysis was fitted using Hill equation to obtain n and K values. These values are also referred in Table 4 in the main text.

[1] = test system: Staphylococcus aureus ATCC 25923; assay: Antimicrobial assay, microdilution method (MIC; % death fitted to Hill equation); type: cell-based; details: for Hill coefficient n, Gram +ve (S. aureus 25923): Hill fit of % death after 18 h incubation vs peptide concentration; for EC50: Hill fit of % death after 18 h incubation, peptide concentration for 50% death, peptides tested in μM, unit inferred, read-out: half saturation constant K, Gram +ve (S. aureus 25923)
Method: (§1) Antimicrobial activity of peptides against Gram-positive (Staphylococcus aureus ATCC 25923, S. aureus ATCC 6538P) and Gram-negative (Escherichia coli ATCC 25922, E. coli ATCC 8739) bacteria were determined by microdilution method. Bacterial cultures were grown in Mueller–Hinton (MH) broth at 37°C for 18 h on a shaker to obtain an OD600 nm of 0.8. The cultures were diluted in MH broth to obtain a cell density of 10^5-10^6 c.f.u/ml. The peptides were serially diluted in MH broth. The serially diluted peptides were inoculated with bacterial cultures in 1:1 ratio in sterile 96-well microtiter plates. A bovine myeloid antimicrobial peptide, BMAP28(1–18), was used as the positive control. The peptides were tested for antimicrobial activity in the range from 1 to 100 μM. The MICs of the peptides were determined by OD600 nm measurements after 18 h of incubation at 37°C. Bacterial strains were purchased from National Collection of Industrial Microorganisms, National Chemical Laboratories, Pune, India. The percentage death evaluated for S. aureus ATCC 25923 and E. coli ATCC 8739 after 18 h incubation was fitted to a Hill equation and the parameters namely Hill coefficient (n) and the half-saturation constant (K) were evaluated (Details in Supplementary File).
(§2) The % death value after 18h incubation of the organisms (E. coli ATCC 8739 and S. aureus ATCC 25923) with the peptides was fitted using the Hill equation: […]
(§3) The percentage death was fitted to a sigmoidal input-output relationship through Hill's Equation as given below.
(§4) Here, Y is the normalized percentage death taking values in the range [0,1] and X is the concentration of the antimicrobial peptide. The data for value of Y was obtained through experiments. It can be noted that the Hill's Equation has two parameters namely, n and K, Hill's Coefficient and Half Saturation Constant, also referred to as K0.5. The values of the parameters are specific to a system. The Hill Equation can be linearized as follows.
(§5) The linear equation was fitted by plotting LHS of the above equation versus ln(X). The slope of the best fit line equation (linear regression) will yield the value of Hill's coefficient and the value of the intercept can be further used to evaluate the value of the half saturation constant, K. The Hill coefficient (n) determines the sensitivity of the response (steepness of the sigmoidal curve) and the half saturation constant (K) determines the threshold input needed for the response (equivalent to EC50 value).

[2] = test system: Escherichia coli ATCC 8739; assay: as above; type: cell-based; details: for Hill coefficient n, Gram −ve (E. coli 8739): Hill fit of % death after 18 h incubation vs peptide concentration; for EC50: Hill fit of % death after 18 h incubation, peptide concentration for 50% death, peptides tested in μM, unit inferred, read-out: half saturation constant K, Gram −ve (E. coli 8739)
Method: as §1, §2, §3, §4, §5

[3] = test system: Escherichia coli ATCC 25922; assay: Antimicrobial assay, microdilution method (MIC); type: cell-based; details: MH broth, 10^5-10^6 c.f.u/ml, 18 h, 37°C, OD600 nm, tested 1 to 100 μM, average range from triplicates of three independent experiments
Method: as §1

[4] = test system: Staphylococcus aureus ATCC 6538P; assay: Antimicrobial assay, microdilution method (MIC); type: cell-based; details: value marked *: 50% inhibition, MH broth, 18 h, 37°C, OD600 nm, triplicates of three independent experiments
Method: as §1

[5] = value marked *: 50% inhibition, microdilution, MH broth, 18 h, 37°C, OD600 nm, triplicates of three independent experiments
[6] = microdilution, MH broth, 10^5-10^6 c.f.u/ml, 18 h, 37°C, OD600 nm, tested 1 to 100 μM, average range from triplicates of three independent experiments

Compound	behavior of the kinetic (death rate) constant as a function of peptide concentration (S. aureus ATCC 25923)	time sufficient to reduce the cell number by half (S. aureus ATCC 25923; at 50µM of the peptide)	death rate constant at 50µM of the peptide (S. aureus ATCC 25923; first order, slope of log(c.f.u) vs time, 50 µM, two time points)	Hills coefficient of death rate constant vs peptide concentration (initial saturating phase) (S. aureus ATCC 25923)	half saturation constant of death rate constant vs peptide concentration (initial saturating phase) (S. aureus ATCC 25923) [µM]	half saturation constant K, Human RBCs (human RBCs)	Hill coefficient n, Gram +ve (S. aureus 25923) [1]	EC50 [1] [µM]	Hill coefficient n, Gram −ve (E. coli 8739) [2]	EC50 [2] [µM]	MIC, E. coli 25922 [3]	MIC, S. aureus 6538 P (* 50% inhibition) [4]	MIC, S. aureus 25923 (* 50% inhibition) [1, 5]	MIC, E. coli 8739 (* 50% inhibition) [2, 5]	MIC, S. aureus 25923 [1, 6]	MIC, E. coli 8739 [2, 6]
CC[C@H](C)[C@H](NC(=O)[C@H](CCCCN)NC(=O)[C@H](CCCNC(=N)N)NC(=O)CNC(=O)[C@H](CC(C)C)NC(=O)[C@H](CO)NC(=O)[C@H](CCCNC(=N)N)NC(=O)[C@H](CC(C)C)NC(=O)CNC(=O)CNC(=O)CCCCCCCCCCCN)C(=O)N[C@@H](CC(C)C)C(=O)N[C@@H](CCCNC(=N)N)C(=O)N[C@@H](C)C(=O)N[C@@H](Cc1c[nH]c2ccccc12)C(=O)N[C@@H](CCCCN)C(=O)N[C@@H](CCCCN)C(=O)N[C@@H](Cc1ccc(O)cc1)C(=O)NCC(N)=O [BMAP28(1–18), reference compound] (H-[12Ado]GGLRSLGRKILRAWKKYG-NH2; N-terminus and C-terminus assumed)	biphasic behavior	about 40 s	about 60 h^-1	2.4	3.1	61.4	2.5	1.4	3.07	2.2	–	–	–	–	–	–
CC[C@H](C)[C@H](NC(=O)CNC(=O)[C@H](CC(C)C)NC(=O)[C@@H](NC(=O)[C@@H](NC(=O)[C@H](CCCCN)NC(=O)[C@H](CCCNC(=N)N)NC(=O)[C@H](C)NC(=O)[C@H](CC(C)C)NC(=O)[C@H](C)NC(=O)[C@H](CCCNC(=N)N)NC(=O)[C@H](CC(C)C)NC(=O)[C@H](CC(C)C)NC(=O)[C@@H](NC(=O)CCCCCCCCCCCN)C(C)C)[C@@H](C)CC)[C@@H](C)O)C(=O)N[C@@H](CCCCN)C(=O)N[C@@H](CCCCN)C(=O)N[C@@H](Cc1ccc(O)cc1)C(=O)NCC(N)=O [P1] (H-[12Ado]VLLRALARKITLGIKKYG-NH2)	monophasic behavior	–	–	2.3	8.4	170	1.2	3	1.02	26.6	–	–	–	–	–	–
CILRWLARKIPWHAKKYG [P2, designed 18-residue MAP-family-like peptide, N-terminal amino-lauric acid and C-terminal amide]	–	–	–	–	–	–	–	–	–	–	NA (NA-inactive upto 100μM)	12.5–25^* μM	50–100^* μM	50–100^* μM	–	–
VFLRILVRKIAPGVKKYG [P3, designed 18-residue MAP-family-like peptide, N-terminal amino-lauric acid and C-terminal amide]	–	–	–	–	–	–	–	–	–	–	NA (NA-inactive upto 100μM)	50–100^* μM	–	–	NA (NA-inactive upto 100μM)	NA (NA-inactive upto 100μM)
